Experimental data reported in PubChem BioAssay (NCI).
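Tested at 5 concentrations; 48 h exposure; 96-well plates; endpoints linearly interpolated, else capped at highest concentration. At the TGI there is no net growth.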

Experiments:
Test in all cases: NCI anticancer screen, dose series, 48 h
[1] = tested on: 786-0 renal
[2] = tested on: A498 renal
[3] = tested on: A549 NSCLC
[4] = tested on: ACHN renal
[5] = tested on: BT-549 breast
[6] = tested on: CAKI-1 renal
[7] = tested on: CCRF-CEM leukemia
[8] = tested on: COLO 205 colon
[9] = tested on: DU-145 prostate
[10] = tested on: EKVX NSCLC
[11] = tested on: HCC-2998 colon
[12] = tested on: HCT-116 colon
[13] = tested on: HCT-15 colon
[14] = tested on: HL-60(TB) leukemia
[15] = tested on: HOP-62 NSCLC
[16] = tested on: HOP-92 NSCLC
[17] = tested on: HS 578T breast
[18] = tested on: HT29 colon
[19] = tested on: IGROV1 ovarian
[20] = tested on: K-562 leukemia
[21] = tested on: KM12 colon
[22] = tested on: LOX IMVI melanoma
[23] = tested on: M14 melanoma
[24] = tested on: MALME-3M melanoma
[25] = tested on: MCF7 breast
[26] = tested on: MDA-MB-231 breast
[27] = tested on: MDA-MB-435
[28] = tested on: MDA-N
[29] = tested on: MOLT-4 leukemia
[30] = tested on: NCI-H226 lung
[31] = tested on: NCI-H23 lung
[32] = tested on: NCI-H460 lung
[33] = tested on: NCI-H522 lung
[34] = tested on: NCI/ADR-RES ovarian
[35] = tested on: OVCAR-3 ovarian
[36] = tested on: OVCAR-4 ovarian
[37] = tested on: OVCAR-5 ovarian
[38] = tested on: OVCAR-8 ovarian
[39] = tested on: PC-3 prostate
[40] = tested on: RPMI-8226 leukemia
[41] = tested on: RXF 393 renal
[42] = tested on: SF-268 CNS
[43] = tested on: SF-295 CNS
[44] = tested on: SF-539 CNS
[45] = tested on: SK-MEL-2 melanoma
[46] = tested on: SK-MEL-28 melanoma
[47] = tested on: SK-MEL-5 melanoma
[48] = tested on: SK-OV-3 ovarian
[49] = tested on: SN12C renal
[50] = tested on: SNB-19 CNS
[51] = tested on: SNB-75 CNS
[52] = tested on: SR leukemia
[53] = tested on: SW-620 colon
[54] = tested on: T-47D breast
[55] = tested on: TK-10 renal
[56] = tested on: U251 CNS
[57] = tested on: UACC-257 melanoma
[58] = tested on: UACC-62 melanoma
[59] = tested on: UO-31 renal

Measured: TGI

CCOC(=O)/C(SC#N)=C(/N)N1CCCC1
> 100 µM: all assays above

C/C=C/[C@@H](C(=O)OC)N1C(=O)c2ccccc2[C@H]1O
> 100 µM: all assays above
